Data: publication PMC3681751, “Identification of a Novel Antimicrobial Peptide from Human Hepatitis B Virus Core Protein Arginine-Rich Domain (ARD)” (PLoS Pathogens, 2013)
Read-outs that look alike come from different tables or passages of the source. Residues, ends and D or L forms follow the SMILES beside them.

Legend:
[1] = tested on: C. albicans (ATCC 10231); format: cell-based, Candida albicans
Description: The antimicrobial activities of HBc ARD peptides were tested using a number of bacterial strains from ATCC, including Pseudomonas aeruginosa Migula strain (ATCC 27853, ampicillin-resistant), Pseudomonas aeruginosa Migula strain (ATCC 9027, ampicillin-resistant), Klebsiella pneumoniae strain (ATCC 17593), Escherichia coli strain (ATCC 25922), Staphylococcus aureus subsp. strain (ATCC 25923, methicillin-resistant), Staphylococcus aureus subsp. strain (ATCC 29213, methicillin-resistant), Staphylococcus aureus subsp. strain (ATCC 19636, methicillinresistant), and Candida albicans strain (ATCC 10231).
All peptides were purchased from Yao-Hong Biotechnology Inc. (Taipei, Taiwan). Vendors provided data of peptide characterizations, including HPLC and Mass (data not shown). Antimicrobial activity was determined as described with some modifications as detailed below. Bacteria were grown overnight in Mueller–Hinton broth (Difco) at 37°C, and during the mid-logarithmic phase, bacteria were diluted to 10^6 CFU (colony formation unit)/ml in phosphate buffer (10 mM sodium phosphate and 50 mM sodium chloride, pH 7.2). Peptides were serially diluted in the same buffer. Fifty microliter (µl) of bacteria was mixed with fifty µl of peptides at varying concentrations followed by incubation at 37°C for 3 hours without shaking. At the end of incubation, bacteria were placed on Mueller-Hinton broth agar plates, and allowed growth at 37°C overnight for measurement of minimal bactericidal concentration (MBC). […] All peptides were tested in triplicate.

[2] = tested on: K. pneumonia; experiment: SYTOX Green uptake (membrane permeabilization); format: cell-based, Klebsiella pneumoniae; settings: 4 µM peptide; 10^7 CFU, 1 µM SYTOX Green, 37°C
Description: Briefly, bacteria (10^7 CFU) were prepared and mixed with 1 µM SYTOX Green (Invitrogen) for 15 minutes in the dark. […] Melittin (Sigma), the major toxin of bee venom, was used as a positive control to provide maximal permeabilization.

[3] = tested on: HEK293 cells; experiment: Cytotoxicity, MTT assay; format: cell-based, human; settings: 1 hour at 37°C; HBc147-183 at 100 µM, melittin at 3.125 µM; triplicates
Description: (§1) Cytotoxicity was measured for HepG2, Huh7, HEK293, and Vero cells by MTT assay. Cells were seeded at 10^4 cells/well in a 96-well plate and serial dilutions of peptides were added into each well. PBS was used as a negative control and melittin was used as a positive control. After 1 hour of incubation, the medium were replaced by fresh medium containing 10% MTT solution (Promega), and the plate was incubated for 4 hours in 5% CO2 at 37°C. The absorbance at the wavelength of 595 nm was measured by an ELISA reader (Bio-Rad model 680).

[4] = tested on: HepG2 cells; experiment: Cytotoxicity, MTT assay; format: cell-based, human; settings: 1 hour at 37°C; HBc147-183 at 100 µM, melittin at 3.125 µM; triplicates
Description: as §1

[5] = tested on: Huh7 cells; experiment: Cytotoxicity, MTT assay; format: cell-based, human; settings: 1 hour at 37°C; HBc147-183 at 100 µM, melittin at 3.125 µM; triplicates
Description: as §1

[6] = tested on: Vero cells; experiment: Cytotoxicity, MTT assay; format: cell-based, monkey; settings: 1 hour at 37°C; HBc147-183 at 100 µM, melittin at 3.125 µM; triplicates
Description: as §1

[7] = tested on: ICR mice; experiment: Acute in vivo toxicity; parameters: species or system mouse; settings: three-week old male ICR mice, 7 days, n = 5
Description: Three-week old male ICR mice (19 to 21 g) were purchased from BioLASCO (Taiwan). Overnight culture of bacteria in BHI broth (Difco) was subcultured in fresh BHI broth to log phase. Inoculums were diluted in BHI broth to indicated densities. To test the acute toxicity of ARD peptide in vivo, ICR male mice were inoculated intraperitoneally (i.p.) with 10 and 20 mg/kg HBc147-183 in PBS, respectively. Each group contained 5 mice. After peptide injection, the number of dead mice was recorded daily for 7 days post-injection. To test the antimicrobial activity of the ARD peptide in vivo, all mice were inoculated i.p. with Staphylococcus aureus ATCC 19636 (4×10^6 CFU/mouse) in BHI broth. Peptide HBc147-183 (10 mg/kg) was administered i.p. at 1, 1.5 and 2 hours post-inoculation. PBS (10 ml/kg) control was administered at 1 hour post-inoculation. […] Mortality was monitored daily for 7 days post-inoculation. […] The mice were anesthetized first before transferring to the IVIS imaging system (IVIS spectrum), and luminescence was measured with an exposure time of 1 minutes or less. The image system measured the number of photons and translated the data to false color images that depicted the region of strong luminescence with red, moderate luminescence with yellow and green, and mild luminescence with blue. […] Total flux (RLU) of region of interest (ROI) was quantified by the IVIS imaging software.

CC(C)[C@H](NC(=O)[C@@H](NC(=O)[C@@H](N)[C@@H](C)O)C(C)C)C(=O)N[C@@H](CCCNC(=N)N)C(=O)N[C@@H](CCCNC(=N)N)C(=O)N[C@@H](CCCNC(=N)N)C(=O)NCC(=O)N[C@@H](CCCNC(=N)N)C(=O)N[C@@H](CO)C(=O)N1CCC[C@H]1C(=O)N[C@@H](CCCNC(=N)N)C(=O)N[C@@H](CCCNC(=N)N)C(=O)N[C@@H](CCCNC(=N)N)C(=O)N[C@H](C(=O)N1CCC[C@H]1C(=O)N[C@@H](CO)C(=O)N1CCC[C@H]1C(=O)N[C@@H](CCCNC(=N)N)C(=O)N[C@@H](CCCNC(=N)N)C(=O)N[C@@H](CCCNC(=N)N)C(=O)N[C@@H](CCCNC(=N)N)C(=O)N[C@@H](CO)C(=O)N[C@@H](CCC(N)=O)C(=O)N[C@@H](CO)C(=O)N1CCC[C@H]1C(=O)N[C@@H](CCCNC(=N)N)C(=O)N[C@@H](CCCNC(=N)N)C(=O)N[C@@H](CCCNC(=N)N)C(=O)N[C@@H](CCCNC(=N)N)C(=O)N[C@@H](CO)C(=O)N[C@@H](CCC(N)=O)C(=O)N[C@@H](CO)C(=O)N[C@@H](CCCNC(=N)N)C(=O)N[C@@H](CCC(=O)O)C(=O)N[C@@H](CO)C(=O)N[C@@H](CCC(N)=O)C(=O)N[C@@H](CS)C(=O)O)[C@@H](C)O [HBc147-183] (H-TVVRRRGRSPRRRTPSPRRRRSQSPRRRRSQSRESQC-OH; N-terminus and C-terminus assumed)
Antimicrobial activity, MBC ([1]; ATCC 10231, 3 h, pH 7.2): ~8 µM
Antimicrobial activity, MBC ([1]; fungi, 3 h at 37°C in phosphate buffer pH 7.2, triplicate): ~36.7 µg/mL
Membrane permeabilization (SYTOX Green uptake) [2]: not able to induce membrane permeabilization
Cell viability / cytotoxicity (MTT) [3]: low level of cytotoxicity
Cell viability / cytotoxicity (MTT) [4]: low level of cytotoxicity
Cell viability / cytotoxicity (MTT) [5]: low level of cytotoxicity
Cell viability / cytotoxicity (MTT) [6]: low level of cytotoxicity
Survival after peptide injection (in vivo toxicity) ([7]; 10 mg/kg i.p.): All mice were alive
Survival after peptide injection (in vivo toxicity) ([7]; 20 mg/kg i.p.): All mice were alive
